PubChem BioAssay (NCI)
Where “and” joins values, the source holds several entries; their conditions need not be identical. Equal values may be shown once.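 1) Cells in 96-well plates. 2) Compound, 48 h, 5 concentrations. 3) Linear interpolation between surrounding doses. 4) Unreached endpoint = highest concentration. At the GI50, growth is halved. Definition used: TGI = concentration required for complete inhibition of growth.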

Tests used:
Experiment in all cases: NCI tumour cell line growth inhibition, 48 h
EKVX NSCLC = system: EKVX NSCLC
UO-31 renal = system: UO-31 renal
KM12 colon = system: KM12 colon
OVCAR-8 ovarian = system: OVCAR-8 ovarian
M19-MEL melanoma = system: M19-MEL melanoma
HCC-2998 colon = system: HCC-2998 colon
HCT-15 colon = system: HCT-15 colon
SR leukemia = system: SR leukemia
OVCAR-3 ovarian = system: OVCAR-3 ovarian
KM20L2 colon = system: KM20L2 colon
CCRF-CEM leukemia = system: CCRF-CEM leukemia
MOLT-4 leukemia = system: MOLT-4 leukemia
SK-MEL-28 melanoma = system: SK-MEL-28 melanoma
SK-OV-3 ovarian = system: SK-OV-3 ovarian
TK-10 renal = system: TK-10 renal
M14 melanoma = system: M14 melanoma
LXFL 529 NSCLC = system: LXFL 529 NSCLC
COLO 205 colon = system: COLO 205 colon
K-562 leukemia = system: K-562 leukemia
SW-620 colon = system: SW-620 colon
NCI-H226 lung = system: NCI-H226 lung
OVCAR-4 ovarian = system: OVCAR-4 ovarian
NCI-H522 lung = system: NCI-H522 lung
HL-60(TB) leukemia = system: HL-60(TB) leukemia
RXF 393 renal = system: RXF 393 renal
HOP-92 NSCLC = system: HOP-92 NSCLC
U251 CNS = system: U251 CNS
CAKI-1 renal = system: CAKI-1 renal
UACC-62 melanoma = system: UACC-62 melanoma
DMS 114 small cell lung = system: DMS 114 small cell lung
XF 498 CNS = system: XF 498 CNS
SN12C renal = system: SN12C renal
MALME-3M melanoma = system: MALME-3M melanoma
RPMI-8226 leukemia = system: RPMI-8226 leukemia
SNB-75 CNS = system: SNB-75 CNS
SF-539 CNS = system: SF-539 CNS
IGROV1 ovarian = system: IGROV1 ovarian
OVCAR-5 ovarian = system: OVCAR-5 ovarian
NCI-H460 lung = system: NCI-H460 lung
HCT-116 colon = system: HCT-116 colon
DLD-1 colon = system: DLD-1 colon
LOX IMVI melanoma = system: LOX IMVI melanoma
NCI-H23 lung = system: NCI-H23 lung
SF-268 CNS = system: SF-268 CNS
UACC-257 melanoma = system: UACC-257 melanoma
SF-295 CNS = system: SF-295 CNS
HOP-18 NSCLC = system: HOP-18 NSCLC
ACHN renal = system: ACHN renal
A549 NSCLC = system: A549 NSCLC
HOP-62 NSCLC = system: HOP-62 NSCLC
A498 renal = system: A498 renal
DMS 273 small cell lung = system: DMS 273 small cell lung
HT29 colon = system: HT29 colon
SNB-78 CNS = system: SNB-78 CNS
786-0 renal = system: 786-0 renal
SK-MEL-2 melanoma = system: SK-MEL-2 melanoma
SNB-19 CNS = system: SNB-19 CNS
SK-MEL-5 melanoma = system: SK-MEL-5 melanoma

C[C@@]12CCC(=O)c3coc(c31)C(=O)c1cc3c(cc12)C(=O)C=CC3=O
GI50 (EKVX NSCLC): > 1000 nM
TGI (EKVX NSCLC): > 1 µM and 48.6 µM
GI50 (UO-31 renal): > 1000 nM
TGI (UO-31 renal): > 1 µM and 30.9 µM
GI50 (KM12 colon): > 1000 nM
TGI (KM12 colon): > 61.6 µM
GI50 (OVCAR-8 ovarian): > 1000 nM
TGI (OVCAR-8 ovarian): > 1 µM and 30.2 µM
GI50 (M19-MEL melanoma): > 1000 nM
TGI (M19-MEL melanoma): > 1 µM and 15.7 µM
GI50 (HCC-2998 colon): > 1000 nM
TGI (HCC-2998 colon): > 100 µM
GI50 (HCT-15 colon): > 1000 nM
TGI (HCT-15 colon): > 1 µM and 32.7 µM
GI50 (SR leukemia): > 1000 nM
TGI (SR leukemia): > 71.2 µM
GI50 (OVCAR-3 ovarian): > 1000 nM
TGI (OVCAR-3 ovarian): > 1 µM and 32.7 µM
GI50 (KM20L2 colon): > 1000 nM
TGI (KM20L2 colon): > 100 µM
TGI (CCRF-CEM leukemia): > 23.2 µM
GI50 (MOLT-4 leukemia): > 1000 nM
TGI (MOLT-4 leukemia): > 100 µM
GI50 (SK-MEL-28 melanoma): > 1000 nM
TGI (SK-MEL-28 melanoma): > 1 µM and 29.9 µM
GI50 (SK-OV-3 ovarian): > 1000 nM
TGI (SK-OV-3 ovarian): > 100 µM
GI50 (TK-10 renal): > 1000 nM
TGI (TK-10 renal): > 61 µM
GI50 (M14 melanoma): > 1000 nM
TGI (M14 melanoma): > 1 µM and 27.6 µM
GI50 (LXFL 529 NSCLC): > 1000 nM
TGI (LXFL 529 NSCLC): > 1 µM and 31.3 µM
GI50 (COLO 205 colon): > 1000 nM
TGI (COLO 205 colon): > 1 µM and 29.7 µM
GI50 (K-562 leukemia): > 1000 nM
TGI (K-562 leukemia): > 56.9 µM
GI50 (SW-620 colon): > 1000 nM
TGI (SW-620 colon): > 1 µM and 35.7 µM
GI50 (NCI-H226 lung): > 1000 nM
TGI (NCI-H226 lung): > 1 µM and 86 µM
GI50 (OVCAR-4 ovarian): > 1000 nM
TGI (OVCAR-4 ovarian): > 1 µM and 32.1 µM
GI50 (NCI-H522 lung): > 1000 nM
TGI (NCI-H522 lung): > 1 µM and 22.1 µM
GI50 (HL-60(TB) leukemia): > 1000 nM
TGI (HL-60(TB) leukemia): > 1 µM and 5.5 µM
GI50 (RXF 393 renal): > 1000 nM
TGI (RXF 393 renal): > 1 µM and 37.1 µM
GI50 (HOP-92 NSCLC): > 1000 nM
TGI (HOP-92 NSCLC): > 1 µM and 19.6 µM
GI50 (U251 CNS): > 1000 nM
TGI (U251 CNS): > 1 µM and 52.9 µM
GI50 (CAKI-1 renal): > 1000 nM
TGI (CAKI-1 renal): > 1 µM and 38.4 µM
GI50 (UACC-62 melanoma): > 1000 nM
TGI (UACC-62 melanoma): > 1 µM and 28.9 µM
GI50 (DMS 114 small cell lung): > 1000 nM
TGI (DMS 114 small cell lung): > 1 µM and 27.6 µM
GI50 (XF 498 CNS): > 1000 nM
TGI (XF 498 CNS): > 1 µM and 33.4 µM
GI50 (SN12C renal): > 1000 nM
TGI (SN12C renal): > 1 µM and 30.7 µM
GI50 (MALME-3M melanoma): > 1000 nM
TGI (MALME-3M melanoma): > 1 µM and 31.3 µM
GI50 (RPMI-8226 leukemia): > 1000 nM
TGI (RPMI-8226 leukemia): > 100 µM
GI50 (SNB-75 CNS): > 1000 nM
TGI (SNB-75 CNS): > 1 µM and 43.9 µM
GI50 (SF-539 CNS): < 1000 nM
TGI (SF-539 CNS): > 1 µM and 31.7 µM
GI50 (IGROV1 ovarian): > 1000 nM
TGI (IGROV1 ovarian): > 1 µM and 59.3 µM
GI50 (OVCAR-5 ovarian): > 1000 nM
TGI (OVCAR-5 ovarian): > 1 µM and 36 µM
GI50 (NCI-H460 lung): > 1000 nM
TGI (NCI-H460 lung): > 70.9 µM
GI50 (HCT-116 colon): > 1000 nM
TGI (HCT-116 colon): > 1 µM and 28.7 µM
GI50 (DLD-1 colon): > 1000 nM
TGI (DLD-1 colon): > 1 µM and 30.5 µM
GI50 (LOX IMVI melanoma): > 1000 nM
TGI (LOX IMVI melanoma): > 1 µM and 20.9 µM
TGI (NCI-H23 lung): 26.2 µM
GI50 (SF-268 CNS): > 1000 nM
TGI (SF-268 CNS): > 1 µM and 38 µM
GI50 (UACC-257 melanoma): > 1000 nM
TGI (UACC-257 melanoma): > 1 µM and 23.8 µM
GI50 (SF-295 CNS): > 1000 nM
TGI (SF-295 CNS): > 1 µM and 31.1 µM
GI50 (HOP-18 NSCLC): > 1000 nM
TGI (HOP-18 NSCLC): > 1 µM and 31.3 µM
GI50 (ACHN renal): > 1000 nM
TGI (ACHN renal): > 1 µM and 30.3 µM
GI50 (A549 NSCLC): > 1000 nM
TGI (A549 NSCLC): > 100 µM
GI50 (HOP-62 NSCLC): > 1000 nM
TGI (HOP-62 NSCLC): > 100 µM
TGI (A498 renal): > 100 µM
GI50 (DMS 273 small cell lung): > 1000 nM
TGI (DMS 273 small cell lung): > 1 µM and 30 µM
GI50 (HT29 colon): > 1000 nM
TGI (HT29 colon): > 1 µM and 39.7 µM
GI50 (SNB-78 CNS): > 1000 nM
TGI (SNB-78 CNS): > 1 µM and 47.8 µM
GI50 (786-0 renal): > 1000 nM
TGI (786-0 renal): > 1 µM and 31 µM
GI50 (SK-MEL-2 melanoma): > 1000 nM
TGI (SK-MEL-2 melanoma): > 1 µM and 45.1 µM
GI50 (SNB-19 CNS): > 1000 nM
TGI (SNB-19 CNS): > 100 µM
GI50 (SK-MEL-5 melanoma): > 1000 nM
TGI (SK-MEL-5 melanoma): > 1 µM and 28.3 µM
